Patent US6846492B2, “Use of phenylethylamine derivatives for the antimicrobial treatment of surfaces” (Ciba Specialty Chemicals Corporation, priority 2000, dated 2005)

What was measured:
Type in all cases: cell-based
[1] = tested on: Staphylococcus hominis DMS 20328 (= SH); experiment: MIC determination in microtiter plates, Staphylococcus hominis; details: Tables 2a/2b, 48 hours at 37° C., ≦20% growth, optical density 620 nm, tested at 120, 60, 30, 15, 7.5 and 3.5 ppm, some approximate
Procedure: (§1) Determination of the Minimum Inhibitory Concentration (MIC Value) in Microtiter Plates
(§2) Casein/soybean flour peptone bouillon for the preparation of pre-cultures of the test bacteria and yeast.
(§3) Mycological slant agar for the pre-culture of moulds
(§4) The test substances are pre-dissolved in dimethyl sulfoxide (DMSO) and tested in a dilution series of 1:2.
(§5) Bacteria and yeast are cultured overnight in CASO bouillon, the mould is cultured overnight on mycological slant agar, and washed off with 10 ml of 0.85% sodium chloride solution (+0.1% TritonX-100).
(§6) All the test organisms are adjusted to an organism count of 1−5×10^6 CFU/ml using 0.85% sodium chloride solution.
(§7) The test substances are pre-pipetted into microtiter plates in an amount of 8 μl per well.
(§8) Pre-diluted organism suspensions are diluted 1:100 in CASO bouillon (bacteria and yeast) or Sabouraud 2% glucose bouillon (mould) and are added in an amount of 192 μl per well to the test substances.
(§9) The test batches are incubated for 48 hours at 37° C. (bacteria and yeast) or for 5 days at 28° C. (mould).
(§10) After incubation, the growth is evaluated by reference to the turbidity of the test batches (optical density) at 620 nm in a microplate reader.
(§11) One microtiter plate is used for each test organism and substance concentration. All the substances are tested in duplicate.

[2] = tested on: Escherichia coli NCTC 8196 (= EC); experiment: MIC determination in microtiter plates, Escherichia coli; details: Tables 2a/2b, 48 hours at 37° C., ≦20% growth, optical density 620 nm, some approximate values
Procedure: as §1, §2, §3, §4, §5, §6, §7, §8, §9, §10, §11

[3] = tested on: Pseudomonas aeruginosa CIP A-22 (= PA); experiment: MIC determination in microtiter plates, Pseudomonas aeruginosa; details: Tables 2a/2b, 48 hours at 37° C., ≦20% growth, optical density 620 nm, some approximate values
Procedure: as §1, §2, §3, §4, §5, §6, §7, §8, §9, §10, §11

[4] = tested on: Candida albicans ATCC 10231 (= CA); experiment: MIC determination in microtiter plates, Candida albicans; details: Tables 2a/2b, 48 hours at 37° C., ≦20% growth, optical density 620 nm, some approximate values
Procedure: as §1, §2, §3, §4, §5, §6, §7, §8, §9, §10, §11

[5] = tested on: Aspergillus niger ATCC 6275 (= AN); experiment: MIC determination in microtiter plates, Aspergillus niger; details: Tables 2a/2b, 5 days at 28° C., ≦20% growth, optical density 620 nm, some approximate values
Procedure: as §1, §2, §3, §4, §5, §6, §7, §8, §9, §10, §11

| Structure (SMILES) | MIC [ppm] SH [1] | MIC [ppm] EC [2] | MIC [ppm] PA [3] | MIC [ppm] CA [4] | MIC [ppm] AN [5] |
| --- | --- | --- | --- | --- | --- |
| CCC(C)Oc1ccc(CCN)cc1OC(C)CC (centres unmarked) [Compound 32] | >120 ppm | >120 ppm | >120 ppm | >120 ppm | >120 ppm |
| CC(C)CCOc1ccc(CCN)cc1OCCC(C)C [Compound 33] | 30 ppm | 15 ppm | 120 ppm | 30 ppm | >120 ppm |
| CCC(CC)Oc1ccc(CCN)cc1OC(CC)CC [Compound 35] | 60 ppm | 60 ppm | >120 ppm | 60 ppm | >120 ppm |
| CCCCCCOc1ccc(CCN)cc1OCCCCCC [Compound 36] | 3.75 ppm | 3.75 ppm | >120 ppm | 3.75 ppm | >120 ppm |
| CCCCCCCOc1ccc(CCN)cc1OCCCCCCC [Compound 37] | 3.75 ppm | 30 ppm | >120 ppm | 30 ppm | >120 ppm |
| CCCCCCCCOc1ccc(CCN)cc1OCCCCCCCC [Compound 38] | 7.5 ppm | >120 ppm | >120 ppm | >120 ppm | >120 ppm |
| CCCCCCCCCOc1ccc(CCN)cc1OCCCCCCCCC [Compound 39] | 60 ppm | >120 ppm | >120 ppm | >120 ppm | >120 ppm |
| CCCCCCCCCCOc1ccc(CCN)cc1OCCCCCCCCCC [Compound 40] | >120 ppm | >120 ppm | >120 ppm | >120 ppm | >120 ppm |
| NCCc1ccc(OC2CCCC2)c(OC2CCCC2)c1 [Compound 41] | 120 ppm | 120 ppm | >120 ppm | 120 ppm | >120 ppm |
| C=CCOc1ccc(CCN)cc1OCC=C [Compound 42] | >120 ppm | >120 ppm | >120 ppm | >120 ppm | >120 ppm |
| C=CCCOc1ccc(CCN)cc1OCCC=C [Compound 43] | >120 ppm | >120 ppm | >120 ppm | >120 ppm | >120 ppm |
| C=CCCCOc1ccc(CCN)cc1OCCCC=C [Compound 44] | 60 ppm | 60 ppm | >120 ppm | 60 ppm | >120 ppm |
| N#Cc1ccc(COc2cc(CCN)cc(OCc3ccc(C#N)cc3)c2OCc2ccc(C#N)cc2)cc1 [Compound 64] | >120 ppm | >120 ppm | >120 ppm | 60 ppm | 15 ppm |
| COC(=O)c1ccc(COc2cc(CCN)cc(OCc3ccc(C(=O)OC)cc3)c2OCc2ccc(C(=O)OC)cc2)cc1 [Compound 65] | 15 ppm | >120 ppm | >120 ppm | 60 ppm | >120 ppm |
| NCCc1cc(OCc2ccccc2F)c(OCc2ccccc2F)c(OCc2ccccc2F)c1 [Compound 66] | 15 ppm | 15 ppm | >120 ppm | 120 ppm | >120 ppm |
| NCCc1cc(OCc2cccc(F)c2)c(OCc2cccc(F)c2)c(OCc2cccc(F)c2)c1 [Compound 67] | 3.75 ppm | 7.5 ppm | >120 ppm | 7.5 ppm | >120 ppm |
| NCCc1cc(OCc2ccc(F)cc2)c(OCc2ccc(F)cc2)c(OCc2ccc(F)cc2)c1 [Compound 68] | 3.75 ppm | 3.75 ppm | >120 ppm | 3.75 ppm | >120 ppm |

| Structure (SMILES) | MIC [ppm] SH [1] | MIC [ppm] EC [2] | MIC [ppm] PA [3] | MIC [ppm] CA [4] | MIC [ppm] AN [5] |
| --- | --- | --- | --- | --- | --- |
| CC(C)(C)c1ccc(COc2cc(CCN)cc(OCc3ccc(C(C)(C)C)cc3)c2OCc2ccc(C(C)(C)C)cc2)cc1 [Compound 69] | >120 ppm | >120 ppm | >120 ppm | >120 ppm | >120 ppm |
| NCCc1cc(OCc2ccccc2)c(OCc2ccccc2)c(OCc2ccccc2)c1 [Compound 70] | 7.5 ppm | 7.5 ppm | >120 ppm | 15 ppm | >120 ppm |
| NCCc1cc(OCc2ccc3ccccc3c2)c(OCc2ccc3ccccc3c2)c(OCc2ccc3ccccc3c2)c1 [Compound 71] | >120 ppm | >120 ppm | >120 ppm | >120 ppm | >120 ppm |
| COC(=O)COc1cc(CCN)cc(OCC(=O)OC)c1OCC(=O)OC [Compound 72] | >120 ppm | >120 ppm | >120 ppm | >120 ppm | >120 ppm |
| CCOC(=O)COc1cc(CCN)cc(OCC(=O)OCC)c1OCC(=O)OCC [Compound 73] | >120 ppm | >120 ppm | >120 ppm | >120 ppm | >120 ppm |
| CCCOC(=O)COc1cc(CCN)cc(OCC(=O)OCCC)c1OCC(=O)OCCC [Compound 74] | >120 ppm | >120 ppm | >120 ppm | >120 ppm | >120 ppm |
| CC(C)OC(=O)COc1cc(CCN)cc(OCC(=O)OC(C)C)c1OCC(=O)OC(C)C [Compound 75] | 60 ppm | >120 ppm | >120 ppm | >120 ppm | >120 ppm |
| NCCc1cc(OCC(=O)OCc2ccccc2)c(OCC(=O)OCc2ccccc2)c(OCC(=O)OCc2ccccc2)c1 [Compound 77] | 120 ppm | >120 ppm | >120 ppm | >120 ppm | >120 ppm |
| CCOC(=O)CCCOc1cc(CCN)cc(OCCCC(=O)OCC)c1OCCCC(=O)OCC [Compound 78] | >120 ppm | >120 ppm | >120 ppm | >120 ppm | >120 ppm |
| CCOC(=O)CCCCOc1cc(CCN)cc(OCCCCC(=O)OCC)c1OCCCCC(=O)OCC [Compound 79] | >120 ppm | >120 ppm | >120 ppm | >120 ppm | 120 ppm |
| CCCOc1cc(CCN)cc(OCCC)c1OCCC [Compound 80] | 120 ppm | 120 ppm | >120 ppm | >120 ppm | 120 ppm |
| CCCCOc1cc(CCN)cc(OCCCC)c1OCCCC [Compound 81] | 15 ppm | 7,5 ppm | 120 ppm | 30 ppm | >120 ppm |
| CC(C)Oc1cc(CCN)cc(OC(C)C)c1OC(C)C [Compound 82] | >120 ppm | >120 ppm | >120 ppm | >120 ppm | >120 ppm |
| CCC(C)Oc1cc(CCN)cc(OC(C)CC)c1OC(C)CC (centres unmarked) [Compound 83] | >120 ppm | 30 ppm | >120 ppm | 120 ppm | >120 ppm |
| CC(C)CCOc1cc(CCN)cc(OCCC(C)C)c1OCCC(C)C [Compound 84] | 3.75 ppm | 7.5 ppm | >120 ppm | 15 ppm | 15 ppm |
| CCC(CC)Oc1cc(CCN)cc(OC(CC)CC)c1OC(CC)CC [Compound 86] | 7.5 ppm | 15 ppm | >120 ppm | 60 ppm | 30 ppm |
| NCCc1cc(OC2CCCC2)c(OC2CCCC2)c(OC2CCCC2)c1 [Compound 92] | 15 ppm | 15 ppm | >120 ppm | 60 ppm | 120 ppm |
